Legend:
[1] = test system: tactile allodynia; assay: L5/6 Spinal Nerve Ligation (Chung Model) of neuropathic pain; format: in vivo, Rat
Procedure: FIG. 1: Efficacy of CR845 in “Chung Model” of neuropathic pain is blocked with Peripheral (Intrapaw) administration of a kappa antagonist (norBNI) in rats. *** denotes p<0.001. compared to vehicle-treated controls (two-way ANOVA). Vehicle or Nor-BNI was administered intraplantarly (0.2 mg) 15 min prior to CR845. Injection (1 mg/kg). N=6 male rats/group, mean±SEM.
The peripheral mechanism of action of CR845 is supported preclinically by both biochemical in vitro assays and in vivo functional pharmacological studies. […] Moreover, in standard preclinical pain models, such as the “Chung Model” of neuropathic pain, the analgesic action of CR845 was blocked with kappa opioid receptor antagonists administered directly to the local site of injury, indicating a peripheral site of action for CR845 (FIG. 1). In the “Chung Model”, neuropathic pain is induced experimentally by ligating spinal nerves mediating sensation for a hind limb. […] Sets of different thickness filaments are used to test sensitivity, each of which is designed to produce a given force (in grams) upon bending after contact. By testing with these filaments, the minimum force to evoke a withdrawal response defines the paw withdrawal threshold. The nerve injury produces a marked reduction in paw withdrawal thresholds (increased sensitivity to force) in response to probing with the filaments.

[2] = test system: acute and chronic visceral, inflammatory and neuropathic pain; assay: Standard preclinical pain models, onset and duration of analgesic effect; format: in vivo
Procedure: (§1) In standard preclinical pain models, CR845 successfully attenuated acute and chronic visceral, inflammatory and neuropathic pain in a dose-dependent manner (see Table 1, below). The analgesic effect of CR845 was recordable within 15 minutes post-administration and lasted for up to 18 hours following single-dose administration.

[3] = Phase 1 clinical trials, safety and sedation (Ramsey Sedation Scale); format: in vivo, human
From the text: The most common TEAEs across evaluated populations were transient facial tingling or numbness, dizziness, fatigue and a transient increase in urine output in the absence of electrolyte loss, or aquaresis. […] No other changes in vital signs, including supine pulse rate, blood pressure, respiratory rate, oral body temperature, or oxygen saturation were reported, nor were any clinically significant changes observed in electrocardiogram characteristics. Additionally, the CNS adverse events characteristic of prior-generation CNS-active kappa agonists, such as acute psychiatric side effects, were not observed with CR845. The potential to cause sedation was assessed using the Ramsey Sedation Scale in the ascending dose-tolerance Phase 1 trial (Study 2048-001) of I.V. CR845, which included 54 subjects (17 on placebo; 37 on CR845).

[4] = test system: postoperative pain (soft tissue surgery); conditions: human, in vivo
[5] = test system: Somatic and visceral pain; assay: Acetic Acid Writhing, somato-visceral inflammatory pain model; format: in vivo; conditions: Mouse
Procedure: as §1

[6] = test system: mechanical hyperalgesia; assay: Complete Freund's Adjuvant, chronic inflammatory pain model; format: in vivo; conditions: Rat
Procedure: as §1

[7] = test system: mechanical hyperalgesia; assay: Carrageenan, acute inflammatory pain model; format: in vivo; conditions: Rat
Procedure: as §1

[8] = Pharmacokinetic studies, drug in extracted brain tissue; format: in vivo; conditions: animals, analgesic and supra-analgesic doses
[9] = test system: pro-inflammatory mediators; assay: Production and release of pro-inflammatory mediators
[10] = test system: postoperative pain (hard tissue surgery); conditions: human, in vivo

Oc1ccc2c3c1O[C@H]1c4[nH]c5c(c4C[C@@]4(O)[C@@H](C2)N(CC2CC2)CC[C@]314)C[C@@]1(O)[C@H]2Cc3ccc(O)c4c3[C@@]1(CCN2CC1CC1)[C@H]5O4 [nor-BNI, nor-binaltorphamine, reference compound]
Effect of kappa antagonist on efficacy of CR845 ([1]; rats, 0.2 mg intraplantar into injured paw 15 min prior to CR845 1 mg/kg): significantly reduces the effect of CR845

CC(C)C[C@@H](NC(=O)[C@@H](Cc1ccccc1)NC(=O)[C@H](N)Cc1ccccc1)C(=O)N[C@H](CCCCN)C(=O)N1CCC(N)(C(=O)O)CC1 [CR845, D-Phe-D-Phe-D-Leu-D-Lys-[ω(4-aminopiperidine-4-carboxylic acid)]—OH]
Time at which analgesic effect was recordable post-administration [2]: ≤ 15 min | Duration of analgesic effect following single-dose administration ([2]; single dose): up to 18 hours | Sedation, Ramsey Sedation Scale ([3]; ascending dose-tolerance Phase 1 trial (Study 2048-001), I.V., healthy subjects): did not cause sedation | Tolerability ([3]; four Phase 1 clinical trials): generally well tolerated | Greater reduction in pain intensity (PID) at 24 hours compared to Placebo/Placebo [4]: approximately 60% | Improvement in mean SPID values 0-4 hour compared to Placebo/Placebo [4]: 3.5 fold | Incidence of nausea, patients [4]: 26.1% | Incidence of vomiting, patients [4]: 1.7% | Mean TOTPAR0-2, pain relief within first 2 hours compared to Placebo/Placebo [4]: statistically superior pain relief | Percentage of patients characterized as Responders (global evaluation of study medication) compared to placebo [4]: higher percentage | Pruritus reported compared to placebo [4]: less pruritus | Reduction of incidence of nausea versus placebo [4]: approximately 50% | Reduction of incidence of vomiting versus placebo [4]: ~80% | SPID over 0-8, 0-12 and 0-16 time periods compared to Placebo/Placebo [4]: reduced pain intensity | Blood sodium increase (hypernatremia), of total patients ([4]; iv, 0.04 mg/kg): 14% | Duration of Action [5]: >18 h | ED50 (I.V., mg/kg) ([5]; I.V.): 0.07 mg/kg | Duration of Action [6]: >2 h | ED50 (I.V., mg/kg) ([6]; I.V., mechanical hyperalgesia): 0.08 mg/kg | Duration of Action [7]: >1 h | ED50 (I.V., mg/kg) ([7]; I.V., mechanical hyperalgesia): 0.3 mg/kg | Concentration of drug in extracted brain tissue [8]: no measurable concentrations | Production and release of pro-inflammatory mediators [9]: decreased the production and release of pro-inflammatory mediators | ED50 (I.V., mg/kg) ([1]; Rat, I.V., L5/6 Spinal Nerve Ligation, tactile allodynia): 0.3 mg/kg | Duration of Action ([1]; Rat, L5/6 Spinal Nerve Ligation): >8 h | Paw withdrawal threshold ([1]; rats, I.V. CR845 1 mg/kg, Chung Model): increase in the withdrawal threshold | Acute psychiatric side effects [10]: no evidence of acute psychiatric side effects | Mean PID from baseline relative to placebo across 48 hour trial period [10]: numerically superior | Most frequent TEAEs (greater than 10%) [10]: transient facial tingling and somnolence | Reduction of incidence of nausea compared to placebo [10]: 60% | Reduction of incidence of vomiting compared to placebo [10]: 80% | SPID scores 0-24, 0-36, 0-48 compared to placebo [10]: Numerical improvements | Rise of mean plasma sodium concentration from baseline ([10]; iv, 0.005 mg/kg): approximately 3% | SPID0-24 compared to placebo ([10]; iv, 0.005 mg/kg): statistically significant reduction in pain intensity | SPID0-36 compared to placebo ([10]; iv, 0.005 mg/kg): statistically significant | SPID0-48 compared to placebo ([10]; iv, 0.005 mg/kg): statistically significant

From US20180028594A1, “[…] OPIOID RECEPTOR AGONISTS FOR HARD TISSUE PAIN” (Cara Therapeutics, Inc., priority 2014, published 2018)
